Experimental data taken from patent US20230257385A1, “SALT AND SOLID FORMS OF TABERNANTHALOG” (priority 2021, published 2023).

Legend:
Format in all cases: physicochemical
[1] = Binary solvent evaporation crystallisation of sorbate salt (Example 10, Experiment 6); conditions: sorbate salt Form A evaporated from MeOH (10 vol) plus solvent B (5 vol), one solvent B per sample
Excerpt: Each vial was capped with aluminium foil, pierced, and allowed to stand undisturbed until the evaporation is completed.

[2] = Suspension equilibration (competitive; ageing cycle; drying of wet pellets), relative stability of forms
Procedure: FIG. 94 depicts the XRPD overlay of, form top to bottom, a mixture of Tabernanthalog·0.5 Fumarate and Tabernanthalog·Fumarate equilibrated in acetonitrile at 20° C., a mixture of Tabernanthalog·0.5 Fumarate and Tabernanthalog·Fumarate equilibrated in acetonitrile at 40° C. and Tabernanthalog fumarate Pattern 19.
FIG. 283 depicts the timepoints of the suspension equilibration in tBME at 20° C. XRPD diffractogram overlay of, from top to bottom, Sample B-A2 (Form B, Pattern #2a), 8-A4 (Form A, Pattern #6a), 16-A1 (t=24 h, 16-A2 (t=48 h), 16-A3 (t=108 h), 16-A4 (t=192 h) 16-A8 (t=4 weeks).
FIG. 284 depicts the timepoints of the suspension equilibration in tBME at 40° C. XRPD diffractogram overlay of, from top to bottom, Sample B-A2 (Form B, Pattern #2a), 8-A4 (Form A, Pattern #6a), 16-B1 (t=24 h, 16-B2 (t=48 h), 16-B3 (t=108 h), 16-B4 (t=192 h) 16-B8 (t=4 weeks).

[3] = Evaporation screen of the monofumarate salt (Experiment Reference 14); conditions: input Sample Reference 1, Solvent A DMSO, Solvent B: 14-A EtOH; for XRPD crystallinity (wet pellet): 14-B nBuOH (disordered), 14-C water (high background); for XRPD crystallinity (oven dried): 14-B nBuOH, 14-C water
Procedure: Crystallization of the API was examined by changing the composition of the crystallization solvent by evaporation of a volatile diluent. This technique is useful for generating kinetic forms and solvates. Separate portions of the tabernanthalog monofumarate salt (Pattern #1, Sample Reference 1, ca 50 mg, 1.0 wt.) were charged to separate vessels. DMSO (100 μl, 2.0 vol, refer to Table 132) was charged to the relevant vessels and subsequent charges of the appropriate co-solvent (900 μl, 18.0 vol) were made to accomplish dissolution. The vials were covered with an aluminum foil cap and pierced with a single hole, then left to stand at 20° C. After 6 days, gentle nitrogen flux was applied to dryness. The products were analyzed by XRPD and companion analyses, for evidence of alternative crystalline forms.

[4] = Competitive suspension equilibration monofumarate Form A and Form B (Experiment Reference 16); conditions: 16-A at 20 °C, 16-B at 40 °C
Procedure: Competitive suspension equilibration (Form A and Form B) (Experiment Reference 16) a. Experimental Procedure Equimolar quantities of Form A (Pattern #6a, 25.4 mg, 1 wt, 8-A4; (Experiment Reference 8-Sample Reference A4)) and Form B (Pattern #2a, 25.0 mg, 1 wt, Sample B-A2) were suspended in tBME (250 μl, 5.0 vol). The first experiment was agitated at 20° C., (16-A) (Experiment Reference 16-Sample Reference A), while the other was agitated at 40° C. (16-B) (Experiment Reference 16-Sample Reference B). The suspension was monitored by XRPD analysis.
Competitive suspension equilibration of Form A (8-A4) (Experiment Reference 8-Sample Reference A4) versus Form B (Sample B-A2) was performed at 20° C. […] Summary of competitive suspension equilibration between Form A and Form B (16-A (Experiment Reference 16-Sample Reference A) and 16-B (Experiment Reference 16-Sample Reference B)) is provided in Table 153A.

[5] = Vapour diffusion of the monofumarate salt (Experiment Reference 13); conditions: input Sample Reference 1, Solvent A DMSO, Solvent B: 13-B TBME, 13-C water, patterns v. disordered
Procedure: The tabernanthalog monofumarate salt (Sample Reference 1, Pattern #1, 3×75 mg, 1 wt) was weighed out in to 3 separate snap-top vials and DMSO (375 ul, 5 vol) was charged to each vial. Gentle warning was applied to ensure full dissolution and the vials (open) were placed inside amber jars that contained 6 ml of DCM (13-A) (Experiment Reference 13-Sample Reference A), tBME (13-B) (Experiment Reference 13-Sample Reference B) and water (13-C) (Experiment Reference 13-Sample Reference C).
The 3 jars that contained the vials were left standing at 20° C., to allow slow movement of the diffusant solvent from the outer jar into the solvent inside the smaller, open wide-necked vessel and promote crystallization by altering the solvent composition.

[6] = Stability of Tabernanthalog·Sorbate·HemiHFIPA at 75% RH, 20° C. and 40° C.; conditions: 5 days; for HFIPA content after storage / powder pattern after storage: 75% RH, 20° C. and 40° C.; for HFIPA content after storage: 19F NMR; for powder pattern after storage: XRPD; for Outcome: input Experiment 3-Sample A2
Procedure: Stability of the salt (Table 302) at elevated relative humidity was examined at 20 and 40° C., to determine if the HFIPA solvent can be replaced by water to generate the isomorphic hydrate.
Experimental reference: Experiment 3-Sample B1, Experiment 3-Sample C1 Tabernanthalog·Sorbate·HemiHFIPA (Experiment 3-Sample A2, 28.2 mg, 1 wt) was charged into a wide necked solid sample vial, the uncapped vial was placed inside a larger amber jar containing an aqueous NaCl slurry. The amber jar was sealed and left to stand for 5 days. The specimen analysed by XRPD, ^19F NMR, TGA and DSC after 5 days.

[7] = Re-proportionation examination hemifumarate / monofumarate (Example 5, Experiment References 5 and 10)
Procedure: (5-B4; Experiment Reference 5-Sample Reference B4) and 40° C. (5-B5; Experiment Reference 5-Sample Reference B5). The output was analyzed by XRPD (FIG. 94).
Purified water (250 ml, 5 vol) was subsequently added, and the suspension was stirred at 50° C. for ca. 24 h.
Purified water (250 ml, 5 vol) was subsequently added, and the suspension was stirred at 20° C. for ca. 24 h.

[8] = Stability panel of salts, open vial / double-bagged vial, t=5 d and 10 d; conditions: input Form A
Excerpt: FIG. 797 depicts the overlay of, from top to bottom, XRPD of Experiment 1-Sample A2 (Form A), Experiment 10-Sample A1 (5 days, open vial Pattern #2), Experiment 10-Sample A2 (10 days, open vial, Pattern #2), Experiment 10-Sample B1 (5 days, double-bagged vial, Form A) and Experiment 10-Sample B2 (10 days, double-bagged vial, Pattern #2).

[9] = listed as Tabernanthalog·Sorbate·hemiHFIPA

CC=CC=CC(=O)O.COc1ccc2c3c([nH]c2c1)CCN(C)CC3 [Experiment 6-Sample A]
XRPD (dried under nitrogen) [1]: Pattern #1

CC=CC=CC(=O)O.COc1ccc2c3c([nH]c2c1)CCN(C)CC3 [Experiment 6-Sample C]
XRPD (dried under nitrogen) [1]: Form A

C/C=C/C=C/C(=O)O.COc1ccc2c3c([nH]c2c1)CCN(C)CC3 [Experiment 6-Sample D]
XRPD (dried under nitrogen) [1]: Form A

C/C=C/C=C/C(=O)O.COc1ccc2c3c([nH]c2c1)CCN(C)CC3 [Experiment 6-Sample E]
XRPD (dried under nitrogen) [1]: Form A

COc1ccc2c3c([nH]c2c1)CCN(C)CC3 [Form B]
form change under competitive suspension equilibration conditions ([2]; in the presence of Form A): slowly evolves into Form A

COc1ccc2c3c([nH]c2c1)CCN(C)CC3.O=C(O)/C=C/C(=O)O [Pattern 14-A]
XRPD crystallinity (wet pellet) [3]: (Pattern #23)

COc1ccc2c3c([nH]c2c1)CCN(C)CC3.O=C(O)/C=C/C(=O)O [Pattern 14-B]
XRPD crystallinity (wet pellet) [3]: (Pattern #23)

COc1ccc2c3c([nH]c2c1)CCN(C)CC3.O=C(O)/C=C/C(=O)O [Pattern 14-C]
XRPD crystallinity (wet pellet) [3]: (Pattern #6a)

COc1ccc2c3c([nH]c2c1)CCN(C)CC3.O=C(O)/C=C/C(=O)O [Pattern 16-A]
XRPD (4 weeks, -A8) ([4]; competitive suspension equilibration of Form A and Form B in TBME (5.0 vol), t = 4 weeks): Form A > Form B | XRPD (48 h, -A2) ([4]; competitive suspension equilibration of Form A and Form B in TBME (5.0 vol), t = 48 h): Form A > Form B | XRPD (108 h, -A3) ([4]; competitive suspension equilibration of Form A and Form B in TBME (5.0 vol), t = 108 h): Form A > Form B | XRPD (192 h, -A4) ([4]; competitive suspension equilibration of Form A and Form B in TBME (5.0 vol), t = 192 h): Form A >> Form B

COc1ccc2c3c([nH]c2c1)CCN(C)CC3.O=C(O)/C=C/C(=O)O [Pattern 16-B]
XRPD (24 h, -A1) ([4]; competitive suspension equilibration of Form A (8-A4) and Form B (Sample B-A2) in TBME (5.0 vol), t = 24 h): Form A > Form B

COc1ccc2c3c([nH]c2c1)CCN(C)CC3.O=C(O)/C=C/C(=O)O [Sample 13-B]
XRPD crystallinity (oven dried) [5]: Pattern #24 | XRPD crystallinity (wet pellet) [5]: Pattern #24

COc1ccc2c3c([nH]c2c1)CCN(C)CC3.O=C(O)/C=C/C(=O)O [Sample 13-C]
XRPD crystallinity (oven dried) [5]: Pattern #23 | XRPD crystallinity (wet pellet) [5]: Pattern #23

COc1ccc2c3c([nH]c2c1)CCN(C)CC3.O=C(O)/C=C/C(=O)O [Sample 14-A]
XRPD crystallinity (oven dried) [3]: Pattern 23

COc1ccc2c3c([nH]c2c1)CCN(C)CC3.O=C(O)/C=C/C(=O)O [Sample 14-B]
XRPD crystallinity (oven dried) [3]: Pattern 23

COc1ccc2c3c([nH]c2c1)CCN(C)CC3.O=C(O)/C=C/C(=O)O [Sample 14-C]
XRPD crystallinity (oven dried) [3]: Pattern 6a

C/C=C/C=C/C(=O)O.C/C=C/C=C/C(=O)O.COc1ccc2c3c([nH]c2c1)CCN(C)CC3.COc1ccc2c3c([nH]c2c1)CCN(C)CC3.OC(C(F)(F)F)C(F)(F)F [Tabernanthalog·Sorbate·HemiHFIPA]
HFIPA content after storage [6]: small decrease in HFIPA content | HFIPA content after storage [6, 9]: partial loss of HFIPA | powder pattern after storage [6]: No change in powder pattern observed | powder pattern after storage [6, 9]: No change in the powder pattern was observed

CC=CC=CC(=O)O.CC=CC=CC(=O)O.COc1ccc2c3c([nH]c2c1)CCN(C)CC3.COc1ccc2c3c([nH]c2c1)CCN(C)CC3.OC(C(F)(F)F)C(F)(F)F [Tabernanthalog•Sorbate•hemiHFIPA]
Outcome ([6]; 75% RH 20° C.): HemiHFIPA | Outcome ([6]; 75% RH 40° C.): HemiHFIPA

COc1ccc2c3c([nH]c2c1)CCN(C)CC3 [tabernanthalog hemifumarate]
change of salt stoichiometry during an ageing cycle ([2]; ageing cycle): re-proportionated into the fumarate salt | re-proportionation of the hemi-salt into the monofumarate salt ([7]; Expt. #1: equilibrated in acetonitrile at 20° C., 20 h time point): did not re-proportionate | outcome of competitive equilibration of hemifumarate and monofumarate ([7]; Expt. #2: acetonitrile, 48 h at 20° C. and 18 h at 40° C., XRPD): re-proportionation into the unary-fumarate appeared to be favored over the hemi-fumarate

C/C=C/C=C/C(=O)O.COc1ccc2c3c([nH]c2c1)CCN(C)CC3 [tabernanthalog sorbate salt Form A]
form by XRPD after stability storage ([8]; 5 days, double-bagged vial): Form A | form by XRPD after stability storage ([8]; 5 days, open vial): Pattern #2 | form by XRPD after stability storage ([8]; 10 days, double-bagged vial): Pattern #2
